A short description of data set [1]: Rane test, single 640 mg/kg doses in mice. The class given is in vivo.
Data set [2] relates to P. falciparum. The experiment in a line: in vitro potency against P. falciparum (strain not stated). In kind it is cell-based. Conditions: Plasmodium falciparum.
In data set [3] the test system is neuroblastoma cell line. The experiment in a line: toxicity in a neuroblastoma cell line. In kind it is cell-based.
The test system of data set [4] is P. falciparum NF54 strain (sensitive to standard antimalarials). The experiment in a line: semiautomated microdilution assay, [3H]-hypoxanthine incorporation, NF54 strain. In kind it is cell-based, Plasmodium falciparum. In outline: (§1)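 Logit regression analysis was used to estimate IC50 values. Parasites were intraerythrocytic forms from asynchronous stock cultures, and compounds were tested by semiautomated microdilution.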

In data set [5] the test system is ANKA strain of P. berghei. The experiment in a line: single dose STI in vivo screen in infected mice. On the set-up: species or system Plasmodium berghei. A digest of the protocol:
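Groups of 3-5 Moro SPF or NMRI mice infected with the ANKA strain of P. berghei received a single dose of trioxolane on day one post-infection. The compound was given in 3% ethanol and 7% Tween 80 or in SSV (0.5% w/v CMC, 0.5% v/v benzyl alcohol, 0.4% v/v Tween 80, 0.9% w/v sodium chloride in water). Antimalarial activity was scored as percent reduction in parasitemia on day three and as survival time versus untreated controls. Survival to day 30 counted as cure.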

Data set [6] relates to Schistosoma mansoni 21-day-old schistosomules. The experiment in a line: effect on 21-day-old schistosomules in mice. The class given is in vivo. The note with it: single 200 mg/kg per os, female mice. As to the method:
All groups were killed 4 weeks after treatment and the liver and intestine were removed and separated. The liver and intestine were compressed and alive male and female worms could be seen and counted. The effect of the compounds was evaluated by mean total and female worm burden.

The test system of data set [7] is parasitemia (malaria infection). The experiment in a line: onset of action and recrudescence experiments. The class given is in vivo. Conditions: single 100 mg/kg po (SSV) on day +3 post-infection; recrudescence = >5% parasitemia; followed up to 60 days; (n/5) = animals. As to the method: The onset of drug action was determined after a single fixed dose of 100 mg/kg (SSV vehicle) po to groups of five animals on day +3 post-infection (day 0).

Data set [8] has as its system Schistosoma mansoni adult schistosomes (49-day-old). The experiment in a line: effect on adult schistosomes (49-day-old) in mice. In kind it is in vivo. The note with it: for % reduction of adult worms growth at day 49 after per os application of 400 mg/kg, TWR (%) / adult worms at day 49, per os 400 mg/kg, DEAD WORM (%): single 400 mg/kg per os; for % reduction of adult worms growth at day 49 after per os application of 600 mg/kg, TWR (%) / adult worms at day 49, per os 600 mg/kg, DEAD WORM (%): single 600 mg/kg per os. As to the method: Mice were infected with 100 Schistosoma mansoni cercariae […]. Each group was treated per os with OZ compounds at single doses of 200, 400, and 600 mg/kg. […] All groups were killed 4 weeks after treatment and the liver and intestine were removed and separated. The liver and intestine were compressed and alive male and female worms could be seen and counted.

Data set [9] can be described thus: dosing in rats. The class given is in vivo. Conditions: rat; for IV t1/2 (10 mg/kg): IV 10 mg/kg; for Oral Bioavailability 10 mg/kg: oral 10 mg/kg; for Oral Bioavailability 25 mg/kg / Oral t1/2 (25 mg/kg): oral 25 mg/kg. The text has this:
(§2) Artesunate is listed as a reference compound.

Data set [10] has as its system Schistosoma mansoni adult schistosomes (49-day-old). The experiment in a line: effect on adult schistosomes (49-day-old) in mice. Conditions: 1 × 600 mg/kg sc. The class given is in vivo.
The subject of data set [11] is ANKA strain of Plasmodium berghei. The experiment in a line: single dose ED50/ED90/ED99 determinations in infected mice. Conditions: single dose po in SSV, mice, percent reduction in parasitemia on day three post-infection. In kind it is in vivo. A digest of the protocol: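 Mice (Moro SPF or NMRI, n=3 per group) infected with P. berghei ANKA received a single dose on day 1 post-infection, vehicle 0.5% CMC/0.5% benzyl alcohol/0.4% Tween 80/0.9% NaCl in water. Read-out is percent reduction in parasitemia on day 3; ED values by nonlinear fitting.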

The nature of data set [12]: dosing in dogs. The class given is in vivo. Conditions: dog; for IV t1/2 (10 mg/kg): IV 10 mg/kg; for Oral t1/2 (10 mg/kg) / Oral Bioavailability 10 mg/kg: oral 10 mg/kg; for Oral Bioavailability 10 mg/kg / Oral Bioavailability 25 mg/kg: OZ 279, OZ 256, OZ 209 values flagged (V); for Oral Bioavailability 25 mg/kg: oral 25 mg/kg.
Source text: as §2

The subject of data set [13] is P. falciparum K1 strain (Thailand resistant to chloroquine). The experiment in a line: semiautomated microdilution assay, [3H]-hypoxanthine incorporation, K1 strain. In kind it is cell-based, Plasmodium falciparum. Conditions: K1 strain, 72 h incubation. A digest of the protocol: as §1

Structures are written as SMILES. ≈ marks a conversion by molar mass, not a printed value.

For `C1CCC2(CC1)OOC1(O2)C2CC3CC(C2)CC1C3` (stereo not drawn) [OZ03], in [1], the “toxicity at single 640 mg/kg doses in mice in the Rane test” value is “no toxicity”. Also, the IC50 in data set [2] was 1 to 5 ng/mL (≈ 3.78 to 18.9 nM); in data set [4] (Plasmodium falciparum, NF54, 72 h, read-out: IC50 (ng/ml) NF54), 1.6 ng/mL (≈ 6.05 nM). Further, the “toxicity in a neuroblastoma cell line” value in data set [3] is on record as “no toxicity”.
As for `CC(C)(N)CNC(=O)C[C@H]1CC[C@]2(CC1)OO[C@]1(O2)C2CC3CC(C2)CC1C3` [OZ277], the “Activity (%) 3 mg/kg SSV po” value in [5] (percent reduction in parasitemia day 3 post-infection, single 3 mg/kg po in SSV) was found to be 99.28%. Further, the “Activity (%) 10 mg/kg SSV po” value in [5] (percent reduction in parasitemia day 3 post-infection, single 10 mg/kg po in SSV) worked out at 99.98%. Besides, in data set [5] (single 10 mg/kg po in SSV), the “Survival (days) 10 mg/kg SSV po” value is given as 9.3 days. For the same compound, in [6], the “% reduction of schistosomule growth at day 21 after per os application of 200 mg/kg, FWR (%)” value stood at 92% and the “% reduction of schistosomule growth at day 21 after per os application of 200 mg/kg, TWR (%)” value amounted to 91%. For the same compound, the “Time of Recrudescence” value in [7] is recorded as 13.0 days. Besides, in data set [8], the “% reduction of adult worms growth at day 49 after per os application of 400 mg/kg, TWR (%)” value is reported as 0/0%; the “adult worms at day 49, per os 400 mg/kg, DEAD WORM (%)” value was 0/0%; the “% reduction of adult worms growth at day 49 after per os application of 600 mg/kg, TWR (%)” value was determined as 17%; the “adult worms at day 49, per os 600 mg/kg, DEAD WORM (%)” value is 14%. Also, in data set [9], the “IV t1/2 (10 mg/kg)” value amounted to 1.29 h, the “Oral Bioavailability 10 mg/kg” value was 36.9%, the “Oral Bioavailability 25 mg/kg” value amounted to 44.1% and the “Oral t1/2 (25 mg/kg)” value turned out to be 1.51 h. Moreover, in data set [10], the “% reduction of adult worms growth, 1 × 600 sc., TWR (%)” value was determined as 39% and the “adult worms, 1 × 600 sc., DEAD WORM (%)” value is given as 17%. For the same compound, in data set [11], the 50% effective dose (ED50) is recorded as 0.78 mg/kg, the ED90 is given as 2.0 mg/kg and the ED99 is 4.4 mg/kg. In addition, in data set [12], the “IV t1/2 (10 mg/kg)” value was 1.58 h, the “Oral t1/2 (10 mg/kg)” value is 2.468 h, the “Oral Bioavailability 10 mg/kg” value was 87.9% and the “Oral Bioavailability 25 mg/kg” value turned out to be 96.1%.
On to `Cc1ccc(S(=O)(=O)O)cc1.O=C(C[C@H]1CC[C@]2(CC1)OO[C@]1(O2)C2CC3CC(C2)CC1C3)N1CCNCC1` [OZ279], for which the “Survival (days) 3 mg/kg SSV po” value in data set [5] (single 3 mg/kg po in SSV) is 8.4 days. For the same compound, the “Survival (days) 10 mg/kg SSV po” value in data set [5] (single 10 mg/kg po in SSV) worked out at 9.3 days. Also, in data set [6], the “% reduction of schistosomule growth at day 21 after per os application of 200 mg/kg, FWR (%)” value is 88% and the “% reduction of schistosomule growth at day 21 after per os application of 200 mg/kg, TWR (%)” value was 86%. In addition, in data set [7], the “Time of Recrudescence” value was 15.0 days. The “IC50 (ng/ml) K1” value in [13] was found to be 0.21 ng/mL. In data set [8], the “% reduction of adult worms growth at day 49 after per os application of 400 mg/kg, TWR (%)” value came to 0%; the “adult worms at day 49, per os 400 mg/kg, DEAD WORM (%)” value came to 12%; the “% reduction of adult worms growth at day 49 after per os application of 600 mg/kg, TWR (%)” value is reported as 33%; the “adult worms at day 49, per os 600 mg/kg, DEAD WORM (%)” value is given as 20%. Also, in data set [9], the “IV t1/2 (10 mg/kg)” value amounted to 1.675 h, the “Oral Bioavailability 10 mg/kg” value is on record as 37.2%, the “Oral Bioavailability 25 mg/kg” value is on record as 71.1% and the “Oral t1/2 (25 mg/kg)” value amounted to 2.78 h. For the same compound, in [10], the “% reduction of adult worms growth, 1 × 600 sc., TWR (%)” value is given as 21% and the “adult worms, 1 × 600 sc., DEAD WORM (%)” value is given as 27%. In [11], this compound returned an ED50 of 0.63 mg/kg, an ED90 of 1.8 mg/kg and an ED99 of 3.9 mg/kg. Besides, in [4] (NF54 strain, 72 h incubation), the “IC50 (ng/ml) NF54” value is 0.24 ng/mL. Moreover, in data set [12], the “IV t1/2 (10 mg/kg)” value is 2.958 h, the “Oral t1/2 (10 mg/kg)” value came to 3.255 h, the “Oral Bioavailability 10 mg/kg” value is given as 32.8% and the “Oral Bioavailability 25 mg/kg” value amounted to 55.7%.
